Assay results: US20060069132A1, “Azolecarboxamide herbicides” (priority 2004, published 2006)

Assays:
[1] = system: ducksalad; assay: Test B flooded paddy test; type: in vivo, Heteranthera limosa; conditions: 1000 g ai/ha, scale 0 to 100 (0 no effect, 100 complete control)
Summary of the method: (§1)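 Visual ratings, 0 (no effect) to 100 (complete control), made versus controls after 13–15 d greenhouse. Paddy plants treated at 2-leaf stage; postemergence plants at 1- to 4-leaf stage, 2–18 cm tall.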

[2] = system: barnyardgrass; assay: Test B flooded paddy test; type: in vivo, Echinochloa crus-galli; conditions: 1000 g ai/ha, scale 0 to 100 (0 no effect, 100 complete control)
Summary of the method: as §1

[3] = system: smallflower umbrella sedge; assay: Test C flooded paddy test; type: in vivo, Cyperus difformis
[4] = system: morningglory; assay: Test B pre-/postemergence herbicide test; type: in vivo, Ipomoea coccinea; conditions: for Morningglory plant response rating: scale 0 (no effect) to 100 (complete control)
Summary of the method: (§2)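 Visual rating, 0 (no effect) to 100 (complete control), versus untreated controls after 13–15 d in greenhouse. Pre- and postemergence applications (postemergence plants 2–18 cm, 1–4 leaves); flooded paddy arm at 2-leaf stage. Compounds in non-phytotoxic solvent plus surfactant.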

[5] = system: cocklebur; assay: Test B pre-/postemergence herbicide test; type: in vivo, Xanthium strumarium; conditions: for Cocklebur plant response rating: scale 0 (no effect) to 100 (complete control)
Summary of the method: as §2

[6] = system: Surinam grass; assay: Test B pre-/postemergence herbicide test; type: in vivo, Urochloa decumbens; conditions: for Surinam Grass plant response rating: scale 0 (no effect) to 100 (complete control)
Summary of the method: (§3)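 Flooded paddy rice and barnyardgrass were treated at the 2-leaf stage; upland plantings received compound either on sown seed or on 1- to 4-leaf seedlings. All were kept 13–15 days in a greenhouse and scored visually, 0–100, relative to untreated plants.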

[7] = system: corn; assay: Test B pre-/postemergence herbicide test; type: in vivo, Zea mays; conditions: for Corn plant response rating: scale 0 (no effect) to 100 (complete control)
Summary of the method: as §3

[8] = system: giant foxtail; assay: Test B pre-/postemergence herbicide test; type: in vivo, Setaria faberi; conditions: for Foxtail, Giant plant response rating: scale 0 (no effect) to 100 (complete control)
Summary of the method: as §3

[9] = system: large crabgrass; assay: Test B pre-/postemergence herbicide test; type: in vivo, Digitaria sanguinalis; conditions: for Crabgrass, Large plant response rating: scale 0 (no effect) to 100 (complete control)
Summary of the method: as §3

[10] = system: blackgrass; assay: Test B postemergence herbicide test; type: in vivo, Alopecurus myosuroides; conditions: scale 0 (no effect) to 100 (complete control)
Summary of the method: as §1

[11] = system: barnyardgrass; assay: Test C flooded paddy test; type: in vivo, Echinochloa crus-galli
Summary of the method: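 After a postemergence application at 1 to 4 leaves (plants 2–18 cm high), or at 2 leaves for barnyardgrass in flooded paddy, plants stayed in the greenhouse for 12 to 14 days. Damage was then judged visually relative to control plants, with 100 indicating complete control.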

[12] = system: ducksalad; assay: Test C flooded paddy test; type: in vivo, Heteranthera limosa
[13] = system: rice; assay: Test C flooded paddy test; type: in vivo, Oryza sativa
Summary of the method: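 Postemergence sprays applied to plants 2 to 18 cm tall (1- to 4-leaf stage); paddy species grown to 2-leaf stage under flooding. After 12 to 14 days in greenhouse, visual rating versus untreated controls on 0–100 scale (0 no effect, 100 complete control).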

[14] = system: velvetleaf; assay: Test B pre-/postemergence herbicide test; type: in vivo, Abutilon theophrasti; conditions: for Velvetleaf plant response rating: scale 0 (no effect) to 100 (complete control)
Summary of the method: as §3

[15] = system: wheat; assay: Test B postemergence herbicide test; type: in vivo, Triticum aestivum; design: key to Wheat plant response rating: 0 = no effect, 100 = complete control
Summary of the method: (§4)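 Treated at 2-leaf (paddy) or 1–4-leaf, 2–18 cm (postemergence); greenhouse 13–15 d; visual score vs control, 0 none to 100 complete control; dash = not tested.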

[16] = system: small flower umbrella sedge; assay: Test B flooded paddy test; type: in vivo, Cyperus difformis; conditions: 1000 g ai/ha, scale 0 to 100 (0 no effect, 100 complete control)
Summary of the method: as §1

[17] = system: rice; assay: Test B flooded paddy test; type: in vivo, Oryza sativa; conditions: 1000 g ai/ha, scale 0 to 100 (0 no effect, 100 complete control)
Summary of the method: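 After treating 2-leaf paddy plants or 2–18 cm postemergence plants (1 to 4 leaves) with formulated chemical, researchers kept them in a greenhouse for 13–15 days. Effects were judged visually versus controls: 0 indicates none, 100 total control.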

[18] = system: wild oat; assay: Test B postemergence herbicide test; type: in vivo, Avena fatua; conditions: scale 0 (no effect) to 100 (complete control)
Summary of the method: as §4

[19] = system: pigweed; assay: Test B pre-/postemergence herbicide test; type: in vivo, Amaranthus retroflexus; conditions: for Pigweed plant response rating: scale 0 (no effect) to 100 (complete control)
Summary of the method: as §3

[20] = system: barnyardgrass; assay: Test B pre-/postemergence herbicide test; type: in vivo, Echinochloa crus-galli; conditions: for Barnyardgrass plant response rating: scale 0 (no effect) to 100 (complete control)
Summary of the method: as §2

[21] = system: lambsquarters; assay: Test B pre-/postemergence herbicide test; type: in vivo, Chenopodium album; conditions: for Lambsquarters plant response rating: scale 0 (no effect) to 100 (complete control)
Summary of the method: as §3

[22] = 125 g ai/ha, scale 0 to 100 (0 no effect, 100 complete control)
[23] = 250 g ai/ha, scale of 0 to 100, 0 is no effect, 100 is complete control
[24] = 500 g ai/ha, visual rating after 12 to 14 days, scale 0 to 100 (0 no effect, 100 complete control)
[25] = 125 g ai/ha, 0 is no effect, 100 is complete control, preemergence
[26] = 125 g ai/ha, visual rating, postemergence

Which results are given for `Cc1nn(C(C)C)nc1C(=O)Nc1cccc(C(=O)N2CC=CC2)c1` [Compound 406]?
Ducksalad plant response rating [1]: 90; Barnyardgrass plant response rating [2]: 90; Sedge, Umbrella plant response rating ([3]; 62 g ai/ha, scale 0 to 100): 75; Sedge, Umbrella plant response rating [3, 22]: 75; Sedge, Umbrella plant response rating [3, 23]: 75; Plant response rating, Sedge, Umbrella [3, 24]: 75; Plant response rating (0 to 100 scale), Morningglory [4, 25]: 10; Morningglory plant response rating [4, 26]: 20; Morningglory plant response rating ([4]; Postemergence, 500 g ai/ha): 60; Plant response rating (0 to 100 scale), Cocklebur [5, 25]: 0; Cocklebur plant response rating [5, 26]: 20; Cocklebur plant response rating ([5]; Postemergence, 500 g ai/ha): 50; Plant response rating (0 to 100 scale), Surinam Grass [6, 25]: 20; Surinam Grass plant response rating [6, 26]: 0; Surinam Grass plant response rating ([6]; Postemergence, 500 g ai/ha): 20; Plant response rating (0 to 100 scale), Corn [7, 25]: 0; Corn plant response rating [7, 26]: 0; Corn plant response rating ([7]; Postemergence, 500 g ai/ha): 10; Plant response rating (0 to 100 scale), Foxtail, Giant [8, 25]: 20; Foxtail, Giant plant response rating [8, 26]: 30; Foxtail, Giant plant response rating ([8]; Postemergence, 500 g ai/ha): 40; Plant response rating (0 to 100 scale), Crabgrass, Large [9, 25]: 90; Crabgrass, Large plant response rating [9, 26]: 10; Crabgrass, Large plant response rating ([9]; Postemergence, 500 g ai/ha): 20; Blackgrass plant response rating [10, 26]: 10; Blackgrass plant response rating ([10]; Postemergence, 500 g ai/ha): 20; Barnyardgrass plant response rating ([11]; 62 g ai/ha, scale 0 to 100 (0 no effect, 100 complete control)): 10; Barnyardgrass plant response rating [11, 22]: 25; Barnyardgrass plant response rating [11, 23]: 30; Plant response rating, Barnyardgrass [11, 24]: 40; Ducksalad plant response rating ([12]; 62 g ai/ha, scale 0 to 100): 20; Ducksalad plant response rating [12, 22]: 20; Ducksalad plant response rating [12, 23]: 50; Plant response rating, Ducksalad [12, 24]: 75; Rice plant response rating ([13]; 62 g ai/ha, scale 0 to 100): 20; Rice plant response rating [13, 22]: 35; Rice plant response rating [13, 23]: 40; Plant response rating, Rice [13, 24]: 45; Plant response rating (0 to 100 scale), Velvetleaf [14, 25]: 10; Velvetleaf plant response rating [14, 26]: 20; Velvetleaf plant response rating ([14]; Postemergence, 500 g ai/ha): 30; Wheat plant response rating ([15]; 125 g ai/ha, visual rating, scale 0 (no effect) to 100 (complete control), postemergence): 0; Wheat plant response rating ([15]; 500 g ai/ha, scale 0 to 100, 0 no effect, 100 complete control, preemergence): 40; Wheat plant response rating ([15]; Postemergence, 500 g ai/ha, scale 0 (no effect) to 100 (complete control)): 0; Sedge, Umbrella plant response rating [16]: 90; Rice plant response rating [17]: 60; Oat, Wild plant response rating [18, 26]: 0; Oat, Wild plant response rating ([18]; Postemergence, 500 g ai/ha): 10; Plant response rating (0 to 100 scale), Pigweed [19, 25]: 50; Pigweed plant response rating [19, 26]: 40; Pigweed plant response rating ([19]; Postemergence, 500 g ai/ha): 50; Plant response rating (0 to 100 scale), Barnyardgrass [20, 25]: 40; Barnyardgrass plant response rating [20, 26]: 10; Barnyardgrass plant response rating ([20]; Postemergence, 500 g ai/ha): 20; Plant response rating (0 to 100 scale), Lambsquarters [21, 25]: 90; Lambsquarters plant response rating [21, 26]: 50; Lambsquarters plant response rating ([21]; Postemergence, 500 g ai/ha): 60
